Assay results as given in article PMC10713630, “Elucidation of the structural basis for ligand binding and translocation in conserved insect odorant receptor co-receptors” (Nature Communications, 2023).
Values joined by “and” are separate entries in the source; they are usually repeats but may differ in a detail not shown here. Equal entries are not always repeated. “Also recorded” adds a separate entry of the source.

Legend:
Format in all cases: cell-based
DmelOrco K373A = DmelOrco K373A (Drosophila melanogaster, UniProt Q9VNB5, K373A); test: TEVC recording of VUAA1-induced current, DmelOrco K373A in Xenopus oocytes; design: VUAA1-induced current, K373A: unit not given here
DmelOrco K373A, sequence (Q9VNB5 whole entry K373A, the tested form may be a part): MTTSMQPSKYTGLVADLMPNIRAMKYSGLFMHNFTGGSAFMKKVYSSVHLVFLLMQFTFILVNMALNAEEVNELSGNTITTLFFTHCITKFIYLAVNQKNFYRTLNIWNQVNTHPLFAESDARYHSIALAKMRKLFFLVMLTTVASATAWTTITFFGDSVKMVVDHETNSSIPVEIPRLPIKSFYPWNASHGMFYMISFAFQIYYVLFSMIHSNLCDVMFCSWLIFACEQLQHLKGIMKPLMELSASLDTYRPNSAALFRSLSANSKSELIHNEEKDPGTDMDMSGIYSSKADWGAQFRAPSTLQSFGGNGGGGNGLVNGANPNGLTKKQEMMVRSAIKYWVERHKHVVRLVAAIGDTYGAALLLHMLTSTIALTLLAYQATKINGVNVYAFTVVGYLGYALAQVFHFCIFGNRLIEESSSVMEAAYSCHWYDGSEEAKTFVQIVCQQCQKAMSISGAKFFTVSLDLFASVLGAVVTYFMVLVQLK
From the text: (§1) All Orco gene sequences were optimized[63] for protein expression in Xenopus laevis oocytes with the GenSmartTM Codon optimization Tool and subcloned into a pGEMHE-derived vector. The wildtype gene of Drosophila melanogaster Orco (DmelOrco) was synthesized by Genscript and subcloned with XmaI/XhoI cloning sites. Site-directed mutagenesis of DmelOrco was done by PCR with the Q5® site directed mutagenesis kit (NEB) using primers optimized with the NEBase Changer online tool and following the supplier’s protocol. After transformation of commercial competent bacteria (XL10 Gold) by standard heat-shock protocol and overnight culture in ampicillin-containing LB plates, positive clones were identified by electrophoretic restriction profile and external sequencing (Genewiz). DNAs of positive clones were amplified with Qiagen MidiPrep Kit and the ORF was fully sequenced. For in vitro transcription, DNAs were linearized with restriction enzyme NotI that cuts a unique site in the 3′ region of the polyA tail. […] DNA and RNA were analyzed by agarose-gel electrophoresis and quantified by spectrophotometry. […]
(§2) Whole cell currents were recorded with the two-electrode voltage-clamp (TEVC) technique with the HiClamp robot (MultiChannel System). […] Data were extracted with M. Vivaudou’s programs[65] and statistically analyzed with Prism 8 (Graphpad).

DmelOrco WT = molecular target: T1, DmelOrco WT (Drosophila melanogaster, UniProt Q9VNB5); test: TEVC recording of VUAA1-induced current, DmelOrco WT in Xenopus oocytes; design: VUAA1-induced current, WT: unit not given here; conditions: for VUAA1-induced current, WT: individual oocytes
T1 sequence (Q9VNB5 1-486): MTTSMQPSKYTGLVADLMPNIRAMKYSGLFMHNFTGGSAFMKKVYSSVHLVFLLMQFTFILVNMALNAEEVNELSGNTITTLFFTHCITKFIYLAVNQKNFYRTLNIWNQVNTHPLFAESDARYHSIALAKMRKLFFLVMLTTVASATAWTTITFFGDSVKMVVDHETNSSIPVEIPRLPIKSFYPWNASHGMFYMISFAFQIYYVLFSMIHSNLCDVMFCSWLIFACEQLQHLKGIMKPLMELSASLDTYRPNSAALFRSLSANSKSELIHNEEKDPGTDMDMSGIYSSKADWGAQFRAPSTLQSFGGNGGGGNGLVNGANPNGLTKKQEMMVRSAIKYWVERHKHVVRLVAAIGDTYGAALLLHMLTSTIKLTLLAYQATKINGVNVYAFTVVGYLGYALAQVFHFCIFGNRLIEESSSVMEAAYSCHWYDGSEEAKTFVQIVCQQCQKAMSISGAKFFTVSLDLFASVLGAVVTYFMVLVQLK
From the text: All Orco gene sequences were optimized[63] for protein expression in Xenopus laevis oocytes with the GenSmartTM Codon optimization Tool and subcloned into a pGEMHE-derived vector. The wildtype gene of Drosophila melanogaster Orco (DmelOrco) was synthesized by Genscript and subcloned with XmaI/XhoI cloning sites. Site-directed mutagenesis of DmelOrco was done by PCR with the Q5® site directed mutagenesis kit (NEB) using primers optimized with the NEBase Changer online tool and following the supplier’s protocol. After transformation of commercial competent bacteria (XL10 Gold) by standard heat-shock protocol and overnight culture in ampicillin-containing LB plates, positive clones were identified by electrophoretic restriction profile and external sequencing (Genewiz). DNAs of positive clones were amplified with Qiagen MidiPrep Kit and the ORF was fully sequenced. For in vitro transcription, DNAs were linearized with restriction enzyme NotI that cuts a unique site in the 3′ region of the polyA tail. The linearized DNAs were purified by the standard phenol:chloroform extraction method and transcribed into mRNA using the T7 ultra mMessage mMachine kit (Thermo Fisher Scientific). mRNAs were purified with the NucleoSpin RNA plus XS kit (Machery-Nagel). DNA and RNA were analyzed by agarose-gel electrophoresis and quantified by spectrophotometry.
Xenopus laevis oocytes were prepared, as previously described. Briefly, oocytes were defolliculated after surgical retrieval by type 1 A collagenase over 2-3 h under smooth horizontal agitation. They were manually selected and incubated at 19 °C in modified-Barth’s solution (1 mM KCl, 0.82 mM MgSO4, 88 mM NaCl, 2.4 mM NaHCO3, 0.41 mM CaCl2, Ca(NO3)2 0.3 mM, 16 mM HEPES, pH 7.4) supplemented with 100 U mL^−1 of penicillin and streptomycin and 0.1 mg mL^−1 of gentamycin. Each oocyte was micro-injected with the Nanoject instrument (Drummond) with 50 nL of 20 ng of mRNA coding for the Orco of interest. Injected oocytes were incubated individually in 96-well plates for 4 days at 19 °C in the same buffer. Different batches of oocytes have been tested per construct. The results of the mutants of interest have been confirmed by a second set of experiments comparing the amplitudes with WT in the same day and from the same batch of oocytes (Supplementary Fig. 11).
Whole cell currents were recorded with the two-electrode voltage-clamp (TEVC) technique with the HiClamp robot (MultiChannel System). Microelectrodes were filled with 3 M KCl. The high K^+ buffer used for recordings was composed of 91 mM KCl, 1 mM MgCl2, 1.8 mM CaCl2, 5 mM HEPES, pH 7.4. Membrane voltage was clamped to −50 mV and VUAA1 was applied for 60 s. Data were extracted with M. Vivaudou’s programs[65] and statistically analyzed with Prism 8 (Graphpad).

DmelOrco Y400S = DmelOrco Y400S (Drosophila melanogaster, UniProt Q9VNB5, Y400S); test: TEVC recording of VUAA1-induced current, DmelOrco Y400S in Xenopus oocytes; conditions: 500 µM VUAA1, TEVC
DmelOrco Y400S, sequence (Q9VNB5 whole entry Y400S, the tested form may be a part): as the sequence (Q9VNB5 whole entry K373A, the tested form may be a part) above, with A373K, Y400S counted along it
From the text: as §1, §2

DmelOrco K373E = DmelOrco K373E (Drosophila melanogaster, UniProt Q9VNB5, K373E); test: TEVC recording of VUAA1-induced current, DmelOrco K373E in Xenopus oocytes; design: VUAA1-induced current, K373E: unit not given here
DmelOrco K373E, sequence (Q9VNB5 whole entry K373E, the tested form may be a part): as the sequence (Q9VNB5 whole entry K373A, the tested form may be a part) above, with A373E counted along it
From the text: as §1, §2

CCc1ccc(NC(=O)CSc2nnc(-c3cccnc3)n2CC)cc1 [VUAA1, N-(4-ethylphenyl)−2-((4-ethyl-5-(3-pyridinyl)−4H-1,2,4-triazol-3-yl)thio)acetamide]
Response to VUAA1 compared with WT (DmelOrco K373A; 500 µM VUAA1, TEVC, K373A): did not significantly affect the amplitude of activation; also recorded: did not change the response
VUAA1-induced current, K373A (DmelOrco K373A; Fig.4b, individual oocytes): 6.85 and 4.61 and 2.07 and 4.45 and 3.44 and 3.51 and 4.3 and 6.42 and 4.68 and 7.17 and 5.08
Current induced by VUAA1 (median) (DmelOrco WT; 500 µM VUAA1, TEVC, WT): 4.71 µA
Current amplitude in the presence of VUAA1 compared with Orcos of other species (DmelOrco WT; 500 µM VUAA1, TEVC, versus AbakOrco, AalbOrco, CquiOrco): highest current amplitude
VUAA1-induced current, WT (DmelOrco WT; Fig.4b): 1.7 and 1.54 and 2.24 and 5.84 and 5.68 and 11.97 and 10.02 and 8.3 and 7.33 and 2.12 and 1.87 and 2.7 and 3.73 and 16.35 and 2.15 and 5.7
VUAA1-induced current, WT (DmelOrco WT; Fig.4i dose-response, VUAA1 10 µM (Log(M) -5)): 0.03 and 0.04 (2×) and 0.02 and 0.09 and 0.05 and 0.06
VUAA1-induced current, WT (DmelOrco WT; Fig.4i dose-response, VUAA1 25 µM (Log(M) -4.6)): 0.27 and 0.36 and 0.04 (4×) and 0.08 (2×) and 0.03 (3×) and 0.02 and 0.05 (3×) and 0.15 and 0 and 0.09 and 0.12 and 0.07
VUAA1-induced current, WT (DmelOrco WT; Fig.4i dose-response, VUAA1 50 µM (Log(M) -4.3)): 0.58 and 0.72 and 0.4 (2×) and 0.37 and 0.54 and 0.11 and 0.17 and 0.26 (3×) and 0.21 and 0.34 and 0.77 and 1.04 and 1.01 (2×) and 0.78 and 1.15 and 1.23
VUAA1-induced current, WT (DmelOrco WT; Fig.4i dose-response, VUAA1 100 µM (Log(M) -4)): 1.33 and 1.71 and 2.65 and 2.17 (2×) and 2.77 and 1.82 and 2.07 and 2.22 and 1.61 and 2.38 and 1.2 and 1.79 and 2.19 and 2.6 and 2.64 (2×) and 1.94 and 2.47 and 2.54
VUAA1-induced current, WT (DmelOrco WT; Fig.4i dose-response, VUAA1 500 µM (Log(M) -3.3)): 3.64 (2×) and 4.55 and 3.85 and 4.63 and 4.01 and 4.3 and 4.47 and 4.77 and 5.33 and 1.53 and 3.97 and 4.65 and 2.65 and 2.64 and 2.78 (2×)
EC50 (DmelOrco WT; VUAA1 dose-response curve, TEVC, WT): 94.5 µM
Imax (DmelOrco WT; concentration-effect curve of VUAA1, TEVC, WT): 3.97 µA
Response to VUAA1 compared with WT (DmelOrco Y400S): did not significantly change the response
Current induced by VUAA1 (median) (DmelOrco K373E; 500 µM VUAA1, TEVC, K373E): 7.47 µA
VUAA1-induced current, K373E (DmelOrco K373E; Fig.4b, individual oocytes): 4.46 and 4.23 and 7.21 and 7.53 and 6.82 and 10.02 and 4.07 and 5.42 and 9.17 and 11.32 and 9.58 and 7.4 and 16.4 and 9.48 and 7.37 and 12.12
